Measurements: patent publication US20250215029A1 (Recludix Pharma, Inc., priority 2022, published 2025)

target: T1, pY641-STAT6 in PBMC (Homo sapiens, UniProt P42226); test: MSD-pSTAT-PBMC Assay (pSTAT6, IL-4 stimulated); format: cell-based; settings: PBMC, compound 3 hrs, then 1 ng/mL IL-4 for 10 min; Table 115; read-out: STAT6
T1 construct: Cryopreserved Peripheral Blood Mononuclear Cells (PBMC) are from AllCells; host or cells: cryopreserved PBMC
T1 sequence (P42226 1-847): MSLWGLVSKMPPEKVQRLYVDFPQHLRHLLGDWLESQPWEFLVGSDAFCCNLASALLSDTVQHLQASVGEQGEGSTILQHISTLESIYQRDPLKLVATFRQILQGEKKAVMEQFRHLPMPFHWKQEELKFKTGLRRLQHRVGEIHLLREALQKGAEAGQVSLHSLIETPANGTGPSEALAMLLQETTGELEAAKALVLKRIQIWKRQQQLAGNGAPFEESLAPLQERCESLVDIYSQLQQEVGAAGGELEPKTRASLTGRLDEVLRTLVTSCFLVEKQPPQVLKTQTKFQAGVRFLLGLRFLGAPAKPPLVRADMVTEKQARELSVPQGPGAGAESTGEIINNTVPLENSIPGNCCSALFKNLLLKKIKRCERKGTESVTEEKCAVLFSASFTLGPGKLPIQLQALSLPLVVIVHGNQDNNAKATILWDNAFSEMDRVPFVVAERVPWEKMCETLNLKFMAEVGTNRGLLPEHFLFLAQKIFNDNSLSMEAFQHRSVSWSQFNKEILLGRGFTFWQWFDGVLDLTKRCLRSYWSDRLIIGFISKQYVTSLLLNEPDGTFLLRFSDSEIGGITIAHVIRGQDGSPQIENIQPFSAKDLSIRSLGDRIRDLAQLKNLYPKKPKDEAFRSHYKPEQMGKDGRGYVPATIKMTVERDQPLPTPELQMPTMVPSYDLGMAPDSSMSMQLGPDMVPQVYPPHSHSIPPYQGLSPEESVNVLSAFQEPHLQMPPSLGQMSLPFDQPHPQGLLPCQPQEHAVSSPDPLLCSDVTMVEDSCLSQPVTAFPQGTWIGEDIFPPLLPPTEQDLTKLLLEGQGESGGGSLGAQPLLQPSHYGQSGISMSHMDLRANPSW
Summary of the method: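 Cells are preincubated with compound for 3 hrs, then stimulated for 10 min, IL-4 at 1 ng/mL driving STAT6 phosphorylation and IL-6 at 10 ng/mL driving STAT3. Phospho-STAT in lysates is quantified by MSD immunoassay, and IC50 is fitted after subtracting unstimulated wells.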

**Q.** CCCOC(=O)[C@H](C)NP(=O)(Oc1ccccc1)[C@@H](F)c1ccc2sc(C(=O)N[C@H]3CCCC[C@H]4CC[C@@H](C(=O)N5C[C@H](c6cccnc6)[C@@H](C#N)C56CC6)N4C3=O)cc2c1 (stereo partly drawn) [Compound 364] was tested. Which IC50 did it give?
**A.** < 100 nM

**Q.** How did the IC50 turn out when CCCOC(=O)[C@H](C)NP(=O)(Oc1ccccc1)[C@@H](F)c1ccc2sc(C(=O)N[C@H]3CCCC[C@H]4CC[C@@H](C(=O)N5C[C@H](c6cccnc6)[C@@H](C#N)C56CC6)N4C3=O)cc2c1 (stereo partly drawn) [Compound 365] was run?
**A.** < 100 nM

same assay, conditions: STAT6, PBMC, compound 3 hrs, then 1 ng/mL IL-4 for 10 min; Table 115

**Q.** For C[C@H](NP(=O)(Oc1ccccc1)[C@H](F)c1ccc2sc(C(=O)N[C@H]3CCC[C@H]4CC[C@@H](C(=O)N5C[C@H](c6ccccc6)[C@@H](C#N)C56CC6)N4C3=O)cc2c1)C(=O)OC1CC1 (stereo partly drawn) [Compound 350, cyclopropyl (((S)-(2-(((3S,6S,9aS)-3-((6S,7R)-7-cyano-6-phenyl-4-azaspiro[2.4]heptane-4-carbonyl)-5-oxooctahydro-1H-pyrrolo[1,2-a]azepin-6-yl)carbamoyl)benzo [b]thiophen-5-yl)fluoromethyl) (phenoxy)phosphoryl)-L-alaninate], which IC50 is on record?
**A.** < 100 nM

**Q.** For COCCOC(=O)[C@H](C)NP(=O)(Oc1ccccc1)[C@H](F)c1ccc2sc(C(=O)N[C@H]3CCC[C@H]4CC[C@@H](C(=O)N5C[C@H](c6ccccc6)[C@@H](C#N)C56CC6)N4C3=O)cc2c1 (stereo partly drawn) [Compound 351, 2-methoxyethyl (((S)-(2-(((3S,6S,9aS)-3-((6S,7R)-7-cyano-6-phenyl-4-azaspiro[2.4]heptane-4-carbonyl)-5-oxooctahydro-1H-pyrrolo[1,2-a]azepin-6-yl)carbamoyl)benzo [b]thiophen-5-yl)fluoromethyl) (phenoxy)phosphoryl)-L-alaninate], which IC50 is on record?
**A.** < 100 nM

**Q.** Which IC50 does the source give for CCCOC(=O)[C@H](C)NP(=O)(Oc1ccccc1)[C@H](F)c1ccc2sc(C(=O)N[C@H]3C[C@H](C)C[C@H]4CC[C@@H](C(=O)N5C[C@H](c6ccccc6)[C@@H](C#N)C56CC6)N4C3=O)cc2c1 (stereo partly drawn) [Compound 352, propyl (((S)-(2-(((3S,6S,8S,9aR)-3-((6S,7R)-7-cyano-6-phenyl-4-azaspiro[2.4]heptane-4-carbonyl)-8-methyl-5-oxooctahydro-1H-pyrrolo[1,2-a]azepin-6-yl)carbamoyl)benzo [b]thiophen-5-yl)fluoromethyl) (phenoxy)phosphoryl)-L-alaninate] here?
**A.** < 100 nM

**Q.** Which IC50 does the source give for CCCOC(=O)[C@H](C)NP(=O)(Oc1ccccc1)[C@@H](F)c1ccc2sc(C(=O)N[C@H]3C[C@@H](C)C[C@H]4CC[C@@H](C(=O)N5C[C@@H](c6cccnc6)CC56CC6)N4C3=O)cc2c1 (stereo partly drawn) [Compound 353, propyl (((R)-fluoro(2-(((3S,6S,8R,9aR)-8-methyl-5-oxo-3-((R)-6-(pyridin-3-yl)-4-azaspiro[2.4]heptane-4-carbonyl)octahydro-1H-pyrrolo[1,2-a]azepin-6-yl)carbamoyl)benzo [b]thiophen-5-yl)methyl)(phenoxy)phosphoryl)-L-alaninate] here?
**A.** < 100 nM

**Q.** C[C@H](NP(=O)(Oc1ccccc1)[C@@H](F)c1ccc2sc(C(=O)N[C@H]3CCC[C@H]4CC[C@@H](C(=O)N5C[C@@H](c6cccnc6)CC56CC6)N4C3=O)cc2c1)C(=O)OCc1nnnn1C (stereo partly drawn) [Compound 356, (1-methyl-1H-tetrazol-5-yl)methyl (((R)-fluoro(2-(((3S,6S,9aS)-5-oxo-3-((R)-6-(pyridin-3-yl)-4-azaspiro[2.4]heptane-4-carbonyl)octahydro-1H-pyrrolo[1,2-a]azepin-6-yl)carbamoyl)benzo [b]thiophen-5-yl)methyl)(phenoxy)phosphoryl)-L-alaninate] was tested. Which IC50 did it give?
**A.** 100 to 1000 nM

**Q.** CCCOC(=O)[C@H](C)NP(=O)(Oc1cccc(OCCOC)c1)[C@@H](F)c1ccc2sc(C(=O)N[C@H]3CCC[C@H]4CC[C@@H](C(=O)N5C[C@@H](c6cccnc6)CC56CC6)N4C3=O)cc2c1 (stereo partly drawn) [Compound 357, propyl (((R)-fluoro(2-(((3S,6S,9aS)-5-oxo-3-((R)-6-(pyridin-3-yl)-4-azaspiro[2.4]heptane-4-carbonyl)octahydro-1H-pyrrolo[1,2-a]azepin-6-yl)carbamoyl)benzo [b]thiophen-5-yl)methyl)(3-(2-methoxyethoxy)phenoxy)phosphoryl)-L-alaninate] was tested. Which IC50 did it give?
**A.** < 100 nM

**Q.** For COC(C)(C)COC(=O)[C@H](C)NP(=O)(Oc1ccccc1)[C@@H](F)c1ccc2sc(C(=O)N[C@H]3CCCC[C@H]4CC[C@@H](C(=O)N5C[C@@H](c6cccnc6)CC56CC6)N4C3=O)cc2c1 (stereo partly drawn) [Compound 358, 2-methoxy-2-methylpropyl (((R)-fluoro(2-(((3S,6S,10aS)-5-oxo-3-((R)-6-(pyridin-3-yl)-4-azaspiro[2.4]heptane-4-carbonyl)decahydropyrrolo[1,2-a]azocin-6-yl)carbamoyl)benzo [b]thiophen-5-yl)methyl)(phenoxy)phosphoryl)-L-alaninate], which IC50 is on record?
**A.** < 100 nM

**Q.** For CCCOC(=O)[C@H](C)NP(=O)(Oc1c(C)cccc1C)[C@H](F)c1ccc2sc(C(=O)N[C@H]3CCC[C@H]4CC[C@@H](C(=O)N5C[C@@H](c6cccnc6)CC56CC6)N4C3=O)cc2c1 (stereo partly drawn) [Compound 359, propyl ((2,6-dimethylphenoxy) ((S)-fluoro(2-(((3S,6S,9aS)-5-oxo-3-((R)-6-(pyridin-3-yl)-4-azaspiro[2.4]heptane-4-carbonyl)octahydro-1H-pyrrolo[1,2-a]azepin-6-yl)carbamoyl)benzo [b]thiophen-5-yl)methyl)phosphoryl)-L-alaninate], which IC50 is on record?
**A.** < 100 nM

**Q.** Which IC50 does the source give for C[C@H](NP(=O)(Oc1ccccc1)[C@@H](F)c1ccc2sc(C(=O)N[C@H]3CCCC[C@H]4CC[C@@H](C(=O)N5C[C@@H](c6cccnc6)CC56CC6)N4C3=O)cc2c1)C(=O)OCC1CCOCC1 (stereo partly drawn) [Compound 360, (tetrahydro-2H-pyran-4-yl)methyl (((R)-fluoro(2-(((3S,6S,10aS)-5-oxo-3-((R)-6-(pyridin-3-yl)-4-azaspiro[2.4]heptane-4-carbonyl)decahydropyrrolo[1,2-a]azocin-6-yl)carbamoyl)benzo [b]thiophen-5-yl)methyl)(phenoxy)phosphoryl)-L-alaninate] here?
**A.** < 100 nM

**Q.** With COCCOC(=O)[C@H](C)NP(=O)(Oc1ccccc1)[C@@H](F)c1ccc2sc(C(=O)N[C@H]3CCC[C@H]4CC[C@@H](C(=O)N5C[C@@H](c6ccccc6)[C@H](C#N)C56CC6)N4C3=O)cc2c1 (stereo partly drawn) [Compound 361, 2-methoxyethyl (((R)-(2-(((3S,6S,9aS)-3-((6R,7S)-7-cyano-6-phenyl-4-azaspiro[2.4]heptane-4-carbonyl)-5-oxooctahydro-1H-pyrrolo[1,2-a]azepin-6-yl)carbamoyl)benzo [b]thiophen-5-yl)fluoromethyl) (phenoxy)phosphoryl)-L-alaninate] as the compound, how does the IC50 read?
**A.** < 100 nM

**Q.** C[C@H](NP(=O)(Oc1ccccc1)[C@@H](F)c1ccc2sc(C(=O)N[C@H]3CCC[C@H]4CC[C@@H](C(=O)N5C[C@@H](c6cccnc6)CC56CC6)N4C3=O)cc2c1)C(=O)OCc1cccnn1 (stereo partly drawn) [Compound 366, pyridazin-3-ylmethyl (((R)-fluoro(2-(((3S,6S,9aS)-5-oxo-3-((R)-6-(pyridin-3-yl)-4-azaspiro[2.4]heptane-4-carbonyl)octahydro-1H-pyrrolo[1,2-a]azepin-6-yl)carbamoyl)benzo [b]thiophen-5-yl)methyl)(phenoxy)phosphoryl)-L-alaninate] was tested. Which IC50 did it give?
**A.** 100 to 1000 nM

**Q.** With C[C@H](NP(=O)(Oc1ccccc1)[C@@H](F)c1ccc2sc(C(=O)N[C@H]3CCCC[C@H]4CC[C@@H](C(=O)N5C[C@@H](c6cccnc6)CC56CC6)N4C3=O)cc2c1)C(=O)OCC1COC1 (stereo partly drawn) [Compound 374, oxetan-3-ylmethyl (((R)-fluoro(2-(((3S,6S,10aS)-5-oxo-3-((R)-6-(pyridin-3-yl)-4-azaspiro[2.4]heptane-4-carbonyl)decahydropyrrolo[1,2-a]azocin-6-yl)carbamoyl)benzo [b]thiophen-5-yl)methyl)(phenoxy)phosphoryl)-L-alaninate] as the compound, how does the IC50 read?
**A.** < 100 nM

**Q.** How did the IC50 turn out when COCCOC(=O)[C@H](C)NP(=O)(Oc1ccccc1)[C@@H](F)c1ccc2sc(C(=O)N[C@H]3CCCC[C@H]4CC[C@@H](C(=O)N5C[C@H](c6ccccc6)[C@@H](C#N)C56CC6)N4C3=O)cc2c1 (stereo partly drawn) [Compound 375, 2-methoxyethyl (((R)-(2-(((3S,6S,10aS)-3-((6S,7R)-7-cyano-6-phenyl-4-azaspiro[2.4]heptane-4-carbonyl)-5-oxodecahydropyrrolo [1,2-a]azocin-6-yl)carbamoyl)benzo [b]thiophen-5-yl)fluoromethyl) (phenoxy)phosphoryl)-L-alaninate] was run?
**A.** < 100 nM
